According to patent US4263430A, “2-Methyl-5-(2-hydroxystyryl)-1,3,4-thiadiazole” (BASF Aktiengesellschaft, priority 1978, dated 1981):

Experiments:
cardiac beta-1-receptors [1] = target: T1, cardiac beta-1-receptors (Felis catus, UniProt Q9TST6); assay: Beta-sympatholytic action: inhibition of isoproterenol-induced tachycardia in narcotized cats; format: in vivo; details: for ED50: cat, iv, read-out: Beta-sympatholytic action ED50%: dose which inhibits the isoproterenol-induced tachycardia by 50%; for R.A. (relative activity) / factor by which doses blocking the cardiac beta-1-receptors are smaller than those of propranolol: cats; for R.A. (relative activity): Propranolol = 1.00; for factor by which doses blocking the cardiac beta-1-receptors are smaller than those of propranolol: versus propranolol
T1 construct: increases the pulse rate of narcotized cats (weighing 2-4 kg) by an average of 40%; from tissue; host or cells: heart of living narcotized cats (in vivo, endogenous receptor)
T1 sequence (Q9TST6 whole entry): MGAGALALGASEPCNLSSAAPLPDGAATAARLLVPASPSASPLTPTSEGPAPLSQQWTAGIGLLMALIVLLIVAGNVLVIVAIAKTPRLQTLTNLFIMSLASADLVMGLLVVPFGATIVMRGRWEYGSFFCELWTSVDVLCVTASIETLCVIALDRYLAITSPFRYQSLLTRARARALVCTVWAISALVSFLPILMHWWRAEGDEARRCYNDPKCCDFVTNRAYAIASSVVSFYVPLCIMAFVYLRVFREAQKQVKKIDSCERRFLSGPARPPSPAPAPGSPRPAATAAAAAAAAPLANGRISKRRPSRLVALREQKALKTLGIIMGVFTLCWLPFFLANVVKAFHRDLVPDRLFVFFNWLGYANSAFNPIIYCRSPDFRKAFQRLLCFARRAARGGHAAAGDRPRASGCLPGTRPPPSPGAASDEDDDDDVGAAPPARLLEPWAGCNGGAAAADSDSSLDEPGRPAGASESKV
Description: The beta-sympatholytic action of the compounds was tested on cats. […] The following test methods were used:
Beta-sympatholytic agents inhibit the tachycardia.
^1 Inhibition of isoproterenolinduced tachycardia in cats under
hexobarbital narcosis. Compound administered intravenously.

in vivo = details: mouse, read-out: Acute toxicity LD50
cardiac beta-1-receptors [2] = details: mouse, in vivo

Row | Compound | ED50 (cardiac beta-1-receptors [1]) [mg/kg] | R.A. (relative activity) (cardiac beta-1-receptors [1]) | LD50 (in vivo) [mg/kg] | Therapeutic range relative (cardiac beta-1-receptors [2]) | factor by which doses blocking the cardiac beta-1-receptors are smaller than those of propranolol (cardiac beta-1-receptors [1])
1 | Cc1nnc(/C=C/c2ccccc2OCC(O)CNC(C)C)s1 (stereo not shown) [Compound 3, 2-Methyl-5-[2-(2-hydroxy-3-isopropylamino-propoxy)-styryl]-1,3,4-thiadiazol] | 0.01 | 14.10 | 83 | 10.84 | 
2 | Cc1nnc(/C=C/c2ccccc2OCC(O)CNC2CC2)s1 (stereo not shown) [Compound 4, 2-Methyl-5-[2-(2-hydroxy-3-cyclopropylamino-propoxy)-styryl]-1,3,4-thiadiazole] | 0.012 | 11.75 | 69.4 | 7.55 | 12
3 | Cc1nnc(/C=C/c2ccccc2OCC(O)CNC(C)(C)C)s1 (stereo not shown) [Compound 5, 2-Methyl-5-[2-(2-hydroxy-3-tert.-butylamino-propoxy)-styryl]-1,3,4-thiadiazole] |  | 25.22 |  | 13.73 | 25
4 | C#CC(C)NCC(O)COc1ccccc1/C=C/c1nnc(C)s1 (stereo not shown) [Compound 6, 2-Methyl-5-[2-(2-hydroxy-3-(1-butyn-3-ylamino)-propoxy)styryl]-1,3,4-thiadiazole] | 0.0111 | 12.70 | 261 | 30.68 | 
